From patent publication US20040009973A1, “Novel potassium channels modulators” (4SC AG, priority 2002, published 2004)

Assays:
[1] = molecular target: T1, BK potassium channel, cloned hSlo (α-hSlo and β-bSlo) in CHO cells (Homo sapiens, UniProt Q12791); experiment: Em-Assay: membrane potential with voltage sensitive dye DiBAC(4)3, fluorescence plate reader; assay type: cell-based; conditions: compound 50 μM; NS004 25 or 50 μM; hSlo transfected CHO cells; change in DiBAC(4)3 fluorescence intensity
T1 construct: expressed in transfected cells; host or cells: CHO cells, permanently transfected
Outline: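 CHO cells stably expressing α-hSlo and β-bSlo were loaded 30-60 min at 37° C with 2 μM DiBAC(4)3 in PBS/20 mM HEPES pH 7.4. Fluorescence (485/520 nm) was read every 60 s: 7 min baseline, then 15 min after compound. Background-subtracted, normalized change was expressed as a ratio to reference NS004.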

[2] = molecular target: BK currents, cloned α-hSlo and β-bSlo in CHO cells (Homo sapiens, UniProt Q12791); experiment: Electrophysiological studies: whole-cell patch-clamp of BK currents; assay type: cell-based; conditions: compound 20 μM, steady-state BK current, free internal Ca2+ 1×10^−6M
Method: Electrophysiological Studies:
CHO cells permanently transfected with cloned α-hSlo and β-bSlo were maintained as described above and used for electrophysiological characterisation, The whole-cell configuration of the patch-clamp technique was used to determine the effect of modulators on BK currents in these cells. The cell line expressing functional BK currents (Zhou et al., Pflügers Arch. 436, p.725 (1998)) were plated onto glass cover slips with a density of 1-5×10^4 cells/cover slip, incubated (37° C., 5% CO2) and used for patch-clamp experiments within 24-48 h. Cells were bathed in mammalian ringer solutions containing (in mM): 160NaCl, 4.5KCl, 2CaCl2, 1MgCl2, 10 HEPES, adjusted to pH 7.4, 290-310 mOsm. The internal pipette solution contained (in mM): 160KCl, 2CaCl2, 1MgCl2, 10 HEPES, EGTA was added to reach a free [Ca^2+]internal=1×10^−6M, adjusted to pH 7.2, 290-310 mOsm. Borosilicate pipettes with a resistance of 2-3 MΩ were filled with the internal solution and mounted on an appropriate holder. Prior to measurements a recording chamber was mounted onto the cell-plated cover slips and the cells were perfused with a simple syringe driven perfusion system. Compounds were added in the final concentration ([…]) to the bath solution using the same system. An EPC-9 patch-clamp amplifier with Pulse and PulseFit software (HEKA) was used to record and analyze currents.
After addition of the compounds to the bath solution their modulating effect was determined by the increase or decrease of specific BK currents after reaching steady-state relative to the BK current before application of drugs (see Table II).

T1 sequence (Q12791 1-1178 isoform Q12791-5): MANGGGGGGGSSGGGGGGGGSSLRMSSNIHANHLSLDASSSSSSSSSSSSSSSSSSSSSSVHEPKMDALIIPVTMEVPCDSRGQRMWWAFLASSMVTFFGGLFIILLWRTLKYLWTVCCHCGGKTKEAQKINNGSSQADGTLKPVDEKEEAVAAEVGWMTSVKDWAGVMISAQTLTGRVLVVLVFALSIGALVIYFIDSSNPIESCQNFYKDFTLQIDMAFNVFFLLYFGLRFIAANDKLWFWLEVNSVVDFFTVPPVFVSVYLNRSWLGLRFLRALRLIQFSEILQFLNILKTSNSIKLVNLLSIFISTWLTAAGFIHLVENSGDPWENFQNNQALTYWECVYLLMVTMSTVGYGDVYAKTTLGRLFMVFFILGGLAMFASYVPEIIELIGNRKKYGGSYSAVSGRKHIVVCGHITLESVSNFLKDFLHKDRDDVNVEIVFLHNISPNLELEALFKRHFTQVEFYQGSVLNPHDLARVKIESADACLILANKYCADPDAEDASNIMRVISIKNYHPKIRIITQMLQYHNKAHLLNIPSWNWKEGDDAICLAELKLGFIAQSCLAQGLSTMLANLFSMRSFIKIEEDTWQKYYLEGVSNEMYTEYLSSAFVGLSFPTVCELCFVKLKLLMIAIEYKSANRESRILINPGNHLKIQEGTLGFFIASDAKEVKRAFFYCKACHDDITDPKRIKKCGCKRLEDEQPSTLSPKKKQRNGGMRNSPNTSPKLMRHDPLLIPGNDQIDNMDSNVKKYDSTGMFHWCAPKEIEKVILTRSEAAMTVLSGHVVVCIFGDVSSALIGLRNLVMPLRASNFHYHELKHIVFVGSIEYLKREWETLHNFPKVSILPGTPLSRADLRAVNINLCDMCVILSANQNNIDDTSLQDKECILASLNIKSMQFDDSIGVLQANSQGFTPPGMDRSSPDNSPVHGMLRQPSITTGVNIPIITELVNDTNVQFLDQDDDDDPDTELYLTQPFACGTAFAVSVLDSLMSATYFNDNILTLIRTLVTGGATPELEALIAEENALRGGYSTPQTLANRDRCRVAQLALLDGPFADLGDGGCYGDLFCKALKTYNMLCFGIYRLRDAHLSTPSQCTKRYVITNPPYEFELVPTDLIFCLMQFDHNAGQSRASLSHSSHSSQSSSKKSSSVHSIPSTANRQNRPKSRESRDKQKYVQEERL
T1 sequence (Q28067 2-191 partner limits assumed): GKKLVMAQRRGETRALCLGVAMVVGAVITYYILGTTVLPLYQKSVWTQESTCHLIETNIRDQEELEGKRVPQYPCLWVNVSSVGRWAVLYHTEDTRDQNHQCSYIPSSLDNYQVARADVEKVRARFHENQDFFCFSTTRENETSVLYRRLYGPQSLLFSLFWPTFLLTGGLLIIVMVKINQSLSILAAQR
BK currents, cloned α-hSlo and β-bSlo in CHO cells, sequence (Q12791 whole entry): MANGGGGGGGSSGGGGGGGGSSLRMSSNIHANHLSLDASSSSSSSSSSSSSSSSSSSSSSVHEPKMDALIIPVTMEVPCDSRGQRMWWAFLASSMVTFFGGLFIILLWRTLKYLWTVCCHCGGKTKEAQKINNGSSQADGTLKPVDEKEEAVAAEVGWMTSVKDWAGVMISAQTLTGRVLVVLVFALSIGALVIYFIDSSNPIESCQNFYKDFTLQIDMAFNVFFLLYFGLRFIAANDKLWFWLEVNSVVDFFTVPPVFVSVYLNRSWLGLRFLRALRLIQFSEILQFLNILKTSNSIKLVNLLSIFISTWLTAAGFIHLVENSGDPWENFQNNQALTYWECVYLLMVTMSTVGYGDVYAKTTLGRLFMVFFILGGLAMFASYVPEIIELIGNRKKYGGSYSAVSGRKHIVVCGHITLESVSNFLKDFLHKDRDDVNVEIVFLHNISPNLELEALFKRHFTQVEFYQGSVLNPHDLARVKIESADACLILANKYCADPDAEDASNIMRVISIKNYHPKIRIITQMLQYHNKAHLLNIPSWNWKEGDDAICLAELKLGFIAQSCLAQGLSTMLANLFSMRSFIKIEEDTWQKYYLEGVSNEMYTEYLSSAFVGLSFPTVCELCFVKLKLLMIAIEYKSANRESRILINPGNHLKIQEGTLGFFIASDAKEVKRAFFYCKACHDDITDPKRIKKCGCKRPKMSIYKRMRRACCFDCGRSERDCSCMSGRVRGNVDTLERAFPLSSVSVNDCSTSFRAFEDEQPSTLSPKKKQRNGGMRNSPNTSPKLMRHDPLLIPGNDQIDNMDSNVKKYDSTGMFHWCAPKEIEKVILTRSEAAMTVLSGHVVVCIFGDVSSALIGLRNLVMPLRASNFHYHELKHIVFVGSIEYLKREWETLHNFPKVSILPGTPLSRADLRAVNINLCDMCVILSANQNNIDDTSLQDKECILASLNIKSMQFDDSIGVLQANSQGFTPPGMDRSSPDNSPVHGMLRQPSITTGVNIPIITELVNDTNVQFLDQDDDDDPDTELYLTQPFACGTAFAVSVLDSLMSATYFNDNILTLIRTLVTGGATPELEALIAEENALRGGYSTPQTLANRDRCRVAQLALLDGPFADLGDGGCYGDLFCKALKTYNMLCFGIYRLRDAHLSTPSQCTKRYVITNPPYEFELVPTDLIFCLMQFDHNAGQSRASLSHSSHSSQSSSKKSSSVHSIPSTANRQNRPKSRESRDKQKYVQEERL
BK currents, cloned α-hSlo and β-bSlo in CHO cells, sequence (Q28067 2-191 partner): as the sequence (Q28067 2-191 partner limits assumed) above

Row | Structure (SMILES) | Em effect: ratio of the compound effect compared to the maximal effect of NS004 [1] | Effect: ratio of current increase after application of compound relative to the control current before compound application [2]
1 | FC(F)(F)c1cc(NCc2ccc(Br)cc2)cc(NCc2ccc3ccccc3c2)c1 [Compound 6, N-(4-Bromobenzyl)-N′-naphthalen-2-ylmethyl-5-trifluoromethylbenzene-1,3-diamine] | +++ (>1.5 = +++) | ++ (>1, 1-1.2 = ++)
2 | FC(F)(F)c1cc(NCc2cccc(Cl)c2)cc(NCc2ccc3ccccc3c2)c1 [Compound 7, N-(3-Chlorobenzyl)-N′-naphthalen-2-ylmethyl-5-trifluoromethyl-benzene-1,3-diamine] | +++ (>1.5 = +++) | + (1-1.1 = +)
3 | Clc1cccc(CNc2cccc(NCc3cccc(Cl)c3)c2)c1 [Compound 11] | + (0-1 = +) | + (1-1.1 = +)
4 | Brc1ccc(CNc2cccc(NCc3ccc(Br)cc3)c2)cc1 [Compound 12] | + (0-1 = +) | + (1-1.1 = +)
5 | Clc1cc(NCc2ccc(Br)cc2)ccc1NCc1ccc(Br)cc1 [Compound 13, N^1,N^4-Bis-(4-bromobenzyl)-2-chlorobenzene-1,4-diamine] | +++ (>1.5 = +++) | +++ (>1.2 = +++)
6 | Clc1cccc(CNc2ccc(NCc3cccc(Cl)c3)c(Cl)c2)c1 [Compound 14] | +++ (>1.5 = +++) | + (1-1.1 = +)
7 | Clc1cc(NCc2ccc3ccccc3c2)ccc1NCc1ccc2ccccc2c1 [Compound 15] | +++ (>1.5 = +++) | + (1-1.1 = +)
8 | Fc1cccc(CNc2cccc(NCc3cccc(F)c3)c2)c1 [Compound 35, N,N′-bis-(3-fluorobenzyl)-benzene-1,3-diaimine] | ++ (>1-1.5 = ++) | +++ (>1.2 = +++)
